From US8361970B2, “Growth factor binding molecules” (University of South Florida, priority 2000, dated 2013)
“And” between values parts separate entries of the source, which are not always exact repeats. Equal values may be shown once. Read-outs that look alike come from different tables or passages of the source.

What was measured:
Type in all cases: cell-based
[1] = system: PDGF-stimulated PDGFR tyrosine phosphorylation; test: Inhibition of PDGF-stimulated PDGFR tyrosine phosphorylation in NIH 3T3 cells (anti-phosphotyrosine Western blot)
Procedure: Starved NIH 3T3 cells are pretreated with various growth factor binding agents (0-100 μM) for 5 min before stimulation with PDGF (10 ng/mL) for 10 min. The cells are then harvested and lysed, and the proteins from the lysates separated by SDS-PAGE and immunoblotted with an anti-phosphotyrosine antibody (4G10: Upstate Biotechnology, Lake Placid, N.Y.). The phosphotyrosine PDGF receptor bands are scanned, and the concentrations of growth factor binding molecules that inhibited the ability of PDGF to stimulate PDGFR tyrosine phosphorylation by 50% are determined.
(§1) Starved NIII 3T3 cells (PDGF-BB and PDGF-AA), NIH 3T3 cells overexpressing either EGFR (EGF) or Flk-1 (VEGF) are pre-treated with the indicated concentrations of GFB-111 for 5 minutes before 10 minutes of stimulation with PDGF-BB (10 ng/ml), PDGF-AA (10 ng/ml), EGF (100 ng/ml) and VEGF (50 ng/ml). Cell lysates are run on SDS-PAGE gels, then transferred to nitrocellulose and Western blotted with anti-phosphotyrosine (4G 10) or anti-phosphorylated Erk1/Erk2 (New England Biolabs).
A novel series of protein surface binding agents are prepared that bind PDGF and disrupt its signaling function. The molecules are composed of a central calix[4] arene scaffold to which is attached four peptide loop domains (FIG. 1). The peptide loop component is based on a cyclic hexapeptide in which two residues are replaced by a 3-aminomethylbenzoate dipeptide mimetic containing a 5-amino substituent for attachment to the scaffold. The resulting molecules (as shown in Table 1) contain a functionalized and variable surface approximately 500 Å^2 in area. Several peptide loop sequences are synthesized (Table 1) to provide molecular surfaces with negatively and positively charged as well as hydrophobic regions designed to bind to complementary areas on the target growth factor. To identify PDGF binding molecules from this library, a cell-based screening assay is developed with NIH 3T3 cells to detect molecules capable of blocking PDGF-BB-induced tyrosine autophosphorylation of the PDGF receptor. The ability of the identified molecules to bind PDGF-BB and inhibit interaction with its receptor is then confirmed biochemically. Starved NIH 3T3 cells are pretreated for 5 min with the synthetic molecules prior to stimulation with PDGF for 10 min. The effects of the molecules on PDGF-stimulated receptor tyrosine phosphorylation are determined by the antiphosphotyrosine Western blotting as described in Table 1. […] GFB-111 has four-fold symmetry containing 4 identical peptide loops with negative and hydrophobic residues, GlyAspGlyTyr (GDGY) (SEQ ID NO. 6), that are designed to be complementary to the PDGF surface involved in binding to PDGFR. The area of PDGF-BB that binds PDGFR is composed primarily of positive and hydrophobic residues.
Starved NIH 3T3 cells are pretreated with the various GFBs (0-100 μM) for 5 min. prior to stimulation with PDGF (10 ng/ml) for 10 min. The cells are then harvested lysed and the proteins from the lysates are separated by SDS-PAGE and immunoblotted with an anti-phosphotyrosine antibody (4G10, Upstate Biotechnology, Lake Placid, N.Y.). The phosphotyrosine PDGF receptor bands are scanned and the concentrations of GFBs that inhibit the ability of PDGF to stimulate PDGFR tyrosine phosphorylation by 50% are determined. Data for each compound is representative of at least two independent experiments. FIG. 1 illustrates the structure of growth factor binders. GFBs are synthesized as described by Park, H. D. et al., Protein surface recognition by synthetic receptors: A route to novel sub-micromolar inhibitors for chymotrypsin. J. Am. Chem. Soc. 121, 8-13 (1999); and Hamuro, Y. et al., A calixarene with four peptide loops: An antibody mimic for recognition of protein surfaces. Angew. Chemie Int. Ed. Engl. 36, 2680-2683 (1997), each herein incorporated by reference in its respective entirety.

[2] = system: VEGF-stimulated Flk-1 tyrosine phosphorylation; test: Inhibition of VEGF-stimulated Flk-1 tyrosine phosphorylation in Flk-1/3T3 cells
Procedure: as §1
(§2) In order to identify molecules that would bind vascular endothelial growth factor (VEGF), Flk-1/3T3 cell-based assay is used that relies on VEGF-stimulation of its receptor, Flk-1, tyrosine phosphorylation and subsequent MAP-kinase activation. The assay used herein identical to that used for PDGF, except that NIH 3T3 cells that overexpress Flk-1 are used. GFB-116, which has four identical loops with the sequence GKGK (SEQ ID NO. 10) is shown to be very potent and selective toward blocking the ability of VEGF to stimulate Flk-1 tyrosine phosphorylation and subsequent MAP-kinase activation as measured by phospho erk-1 and erk-2 also referred to in the Table as p42 and p44 (Table 4A). A preferred embodiment of the invention is a compound that binds to a vascular endothelial growth factor, of the general structure III (above) in which R is n-butyl, n-propyl, or benzyl, and X comprise covalently attached identical cyclic peptide loops wherein R1, R2, R3, and R4 are each amino acid side chains, as broadly defined above, that define a tetrapeptide sequence, wherein said tetrapeptide is covalently attached at the amino and carboxy termini of said tetrapeptide to 3-aminomethyl-5-aminobenzamide linking group, and wherein said tetrapeptide sequence is GKGK (SEQ ID NO. 10), GDGY (SEQ ID NO. 6), or functionally related derivatives thereof.

[3] = system: VEGF-stimulated MAP kinase activation; test: Inhibition of VEGF-stimulated MAP kinase (p42/p44, Erk2/Erk1) activation in Flk-1/3T3 cells; settings: for IC50: Flk-1/3T3, VEGF stimulated
Procedure: as §1
(§3) In other experiments, starved NIH 3T3 cells (PDGF-AA, PDGF-BB, aFGF, bFGF), NIH 3T3 cells overexpressing EGFR. IGF-1R or Flk-1 and the human breast carcinoma SkBr3 that overexpresses ErbB2 (HRGβ) are pretreated with GFB-111 (100 μM) for 5 min before 10 min stimulation with the indicated growth factors at the concentrations shown above and aFGF (10 ng/ml), bFGF (50 ng/ml), IGF-1 (50 ng/ml) and HRGβ (10 ng/ml). Cell lysates are then immunoblotted with anti-phospho Erk1/Erk2 as described above.
as §2

[4] = system: IGF-1 stimulated MAP kinase activation; test: Inhibition of IGF-1 stimulated MAP kinase (p42/p44) activation in IGFR/3T3 cells
Procedure: as §3
The ability of the GFB library to block the ability of IGF-1 to stimulate the IFG-1 R tyrosine phosphorylation and MAP kinase activation is evaluated using the cell assay described above with IGF-1R/3T3 cells as target cell. […] A preferred embodiment of the invention is a compound that binds to an insulin-like growth factor-1, of the general structure III, wherein R is n-butyl, n-propyl, or benzyl, and X1, X2, X3, and X4 optionally comprise identical cyclic peptide loops of the general structure II, and wherein R1, R2, R3, and R4 are each amino acid side chains that define a tetrapeptide sequence, wherein said tetrapeptide is covalently attached at the amino and carboxy termini of said tetrapeptide to a 3-aminomethyl-5-aminobenzamide linking group.

[5] = Flk-1/3T3, VEGF stimulated, read-out: (IC50) Inhibition Flk-1-Y-P
[6] = read-out: (IC50) Inhibition p42
[7] = read-out: (IC50) Inhibition p44
[8] = 100 μM, IGFR/3T3, IGF-1 stimulated

GKGK [GFB-116] was tested, and the IC50 ([1]; 5 min pretreatment, PDGF 10 ng/ml 10 min, read-out: (IC50) Inhibition PDGFR-Y-P) was 40 µM, the IC50 [2, 5] was 0.3 µM and the “Block of VEGF-activation of the MAPKinases Erk1 and Erk2” value ([3]; FIG. 13) was “block”. The IC50 [3, 6] was 5 µM, the IC50 [3, 7] was 5 µM and the “% Inhibition at 100 μM p44” value [4, 8] was 25.2% and 43.5%.
For `CCCCOc1c2cc(C(=O)Nc3cc4cc(c3)C(=O)NCC(=O)N[C@@H](CC(=O)O)C(=O)NCC(=O)N[C@@H](Cc3ccc(O)cc3)C(=O)NC4)cc1Cc1cc(C(=O)Nc3cc4cc(c3)C(=O)NCC(=O)N[C@@H](CC(=O)O)C(=O)NCC(=O)N[C@@H](Cc3ccc(O)cc3)C(=O)NC4)cc(c1OCCCC)Cc1cc(C(=O)Nc3cc4cc(c3)C(=O)NCC(=O)N[C@@H](CC(=O)O)C(=O)NCC(=O)N[C@@H](Cc3ccc(O)cc3)C(=O)NC4)cc(c1OCCCC)Cc1cc(C(=O)Nc3cc4cc(c3)C(=O)NCC(=O)N[C@@H](CC(=O)O)C(=O)NCC(=O)N[C@@H](Cc3ccc(O)cc3)C(=O)NC4)cc(c1OCCCC)C2` [GFB-111], the “Concentration giving complete block of PDGF-BB stimulated receptor tyrosine phosphorylation” value [1] was 3 µM, the IC50 ([1]; read-out: IC50 of inhibition of PDGF-BB stimulation of PDGF receptor tyrosine autophosphorylation) was 0.25 µM and the IC50 [2, 5] was 5 µM. The IC50 ([2]; read-out: IC50 VEGF-stimulated Flk-1 tyrosine phosphorylation and MAPK activation) was 10 µM, the IC50 [3, 6] was 10 µM and the IC50 [3, 7] was 10 µM. The “% Inhibition at 100 μM p42” value [4, 8] was −18.4%, the “% Inhibition at 100 μM p44” value [4, 8] was 10.7% and the “IGF-1-activation of Erk1/Erk2” value ([4]; concentrations as high as 100 μM) was “minimally affected”.
